Laboratory results as given in article PMC7432094, “Flexible NAD^+ Binding in Deoxyhypusine Synthase Reflects the Dynamic Hypusine Modification of Translation Factor IF5A” (International Journal of Molecular Sciences, 2020).

Molecular target: T1, PhoDHS (deoxyhypusine synthase from Pyrococcus horikoshii OT3) (Pyrococcus horikoshii, UniProt O50105)
T1 construct: gene dys; full length 1-342, 39 kDa; N-terminal His6 tag with TEV site, tag cleaved; expressed in E. coli B834 (DE3) pRARE2; homotetramer about 130 kDa
Test: X-ray crystal structure ([…] Å); UV absorbance of NAD+ bound in solution
Type: binding
Conditions: NAD+ co-purified from E. coli, none added for the crystal; crystals at pH 4.8, 20 °C; UV at pH 8.0; site at the molA/molD interface

T1 sequence (O50105 whole entry): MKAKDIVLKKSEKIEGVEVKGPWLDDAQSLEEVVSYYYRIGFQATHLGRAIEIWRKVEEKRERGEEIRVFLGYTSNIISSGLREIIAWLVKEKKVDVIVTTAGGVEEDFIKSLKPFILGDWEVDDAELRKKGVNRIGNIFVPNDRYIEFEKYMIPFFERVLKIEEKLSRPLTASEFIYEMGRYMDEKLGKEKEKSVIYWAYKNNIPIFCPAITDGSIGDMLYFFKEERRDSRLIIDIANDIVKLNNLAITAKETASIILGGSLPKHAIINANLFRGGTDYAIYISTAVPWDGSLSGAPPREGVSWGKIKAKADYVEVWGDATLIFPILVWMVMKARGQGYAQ

## NC(=O)c1ccc[n+]([C@@H]2O[C@H](COP(=O)(O)OP(=O)(O)OC[C@H]3O[C@@H](n4cnc5c(N)ncnc54)[C@H](O)[C@@H]3O)[C@@H](O)[C@H]2O)c1 [NAD^+]
  X-ray crystal structure (2.2 Å); UV absorbance of NAD+ bound in solution: Two bulky electron density blocks shaped as NAD^+ were distinguished at the interface between molA
